In US11040031B2, “Pyrazole derivatives as MALT1 inhibitors” (Janssen Pharmaceutica NV, priority 2018, dated 2021):

Biological target: T1, full-length MALT1 protein (Strep-MALT1(1-824)-His) (Homo sapiens, UniProt Q9UDY8)
T1 sequence (Q9UDY8 1-824): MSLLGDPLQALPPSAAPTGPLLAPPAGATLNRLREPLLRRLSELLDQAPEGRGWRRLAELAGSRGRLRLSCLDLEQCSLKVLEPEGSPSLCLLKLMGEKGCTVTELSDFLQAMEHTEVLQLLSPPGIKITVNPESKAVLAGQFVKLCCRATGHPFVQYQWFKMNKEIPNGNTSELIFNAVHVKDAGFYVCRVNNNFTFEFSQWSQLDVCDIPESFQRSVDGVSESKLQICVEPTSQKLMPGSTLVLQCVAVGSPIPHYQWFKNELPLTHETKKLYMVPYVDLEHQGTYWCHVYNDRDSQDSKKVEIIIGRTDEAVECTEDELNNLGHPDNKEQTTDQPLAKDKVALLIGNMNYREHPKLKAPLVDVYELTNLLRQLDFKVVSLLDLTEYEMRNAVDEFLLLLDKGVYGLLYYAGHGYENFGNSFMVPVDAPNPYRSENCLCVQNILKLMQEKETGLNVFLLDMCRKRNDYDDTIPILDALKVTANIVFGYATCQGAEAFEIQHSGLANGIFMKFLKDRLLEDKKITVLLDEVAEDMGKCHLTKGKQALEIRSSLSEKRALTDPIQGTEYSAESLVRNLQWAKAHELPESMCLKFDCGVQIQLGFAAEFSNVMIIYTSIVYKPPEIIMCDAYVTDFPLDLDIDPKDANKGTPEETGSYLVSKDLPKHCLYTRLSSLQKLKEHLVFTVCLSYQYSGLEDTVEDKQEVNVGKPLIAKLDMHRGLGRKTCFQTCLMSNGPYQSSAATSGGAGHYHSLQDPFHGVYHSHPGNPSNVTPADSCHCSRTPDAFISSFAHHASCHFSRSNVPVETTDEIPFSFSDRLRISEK
Assay: biochemical
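Note: fluorogenic LRSR-AMC substrate cleavage by MALT1, 50 min compound preincubation then 4 h reaction at RT, 11-point dilution from 30 µM, scaled between enzyme-free and untreated enzyme controls.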

Row | IC50 [nM] | SMILES
1 | 2400 | O=C(Nc1cnc(-n2nccn2)c(Cl)c1)c1cnn(-c2ccc(F)c(N3CC(O)C3)n2)c1C(F)(F)F [Cpd 151, N-(5-chloro-6-(2H-1,2,3-triazol-2-yl)pyridin-3-yl)-1-(5-fluoro-6-(3-hydroxyazetidin-1-yl)pyridin-2-yl)-5-(trifluoromethyl)-1H-pyrazole-4-carboxamide]
2 | 832 | O=C(Nc1cnc(-n2nccn2)c(Cl)c1)c1cnn(-c2ccncc2F)c1C(F)(F)F [Cpd 6, N-(5-Chloro-6-(2H-1,2,3-triazol-2-yl)pyridin-3-yl)-1-(3-fluoropyridin-4-yl)-5-(trifluoromethyl)-1H-pyrazole-4-carboxamide]
3 | 1910 | Cc1cnc([C@H]2COCCO2)cc1-n1ncc(C(=O)Nc2cnc(-n3nccn3)c(Cl)c2)c1C(F)(F)F (single isomer, unassigned) [Cpd 205, (*S)-1-(2-(1,4-dioxan-2-yl)-5-methylpyridin-4-yl)-N-(5-chloro-6-(2H-1,2,3-triazol-2-yl)pyridin-3-yl)-5-(trifluoromethyl)-1H-pyrazole-4-carboxamide]
4 | 513 | Cc1ccncc1-n1ncc(C(=O)Nc2cnc(-n3nccn3)c(C#N)c2)c1C(F)(F)F [Cpd 91, N-(5-cyano-6-(2H-1,2,3-triazol-2-yl)pyridin-3-yl)-1-(4-methylpyridin-3-yl)-5-(trifluoromethyl)-1H-pyrazole-4-carboxamide]
5 | 3720 | Cc1nc(-n2nccn2)c(Cl)cc1NC(=O)c1cnn(-c2ccc(C(N)=O)c(N)n2)c1C(F)(F)F [Cpd 198, 2-amino-6-(4-((5-chloro-2-methyl-6-(2H-1,2,3-triazol-2-yl)pyridin-3-yl)carbamoyl)-5-(trifluoromethyl)-1H-pyrazol-1-yl)nicotinamide]
6 | 525 | Cc1cnc([C@@H]2CCCO2)cc1-n1ncc(C(=O)Nc2cnc(-n3nccn3)c(Cl)c2)c1C(F)(F)F (single isomer, unassigned) [Cpd 204, (*S)—N-(5-chloro-6-(2H-1,2,3-triazol-2-yl)pyridin-3-yl)-1-(5-methyl-2-(tetrahydrofuran-2-yl)pyridin-4-yl)-5-(trifluoromethyl)-1H-pyrazole-4-carboxamide]
7 | 2090 | N#Cc1cncc(-n2ncc(C(=O)Nc3cnc(-n4nccn4)c(Cl)c3)c2C(F)(F)F)c1 [Cpd 17, N-(5-Chloro-6-(2H-1,2,3-triazol-2-yl)pyridin-3-yl)-1-(5-cyanopyridin-3-yl)-5-(trifluoromethyl)-1H-pyrazole-4-carboxamide]
8 | 2040 | Cc1cnc([C@@H]2COCCO2)cc1-n1ncc(C(=O)Nc2cnc(-n3nccn3)c(Cl)c2)c1C(F)(F)F (single isomer, unassigned) [Cpd 206, (*R)-1-(2-(1,4-dioxan-2-yl)-5-methylpyridin-4-yl)-N-(5-chloro-6-(2H-1,2,3-triazol-2-yl)pyridin-3-yl)-5-(trifluoromethyl)-1H-pyrazole-4-carboxamide]
9 | 4370 | O=C(Nc1cnc(-n2nccn2)c(Cl)c1)c1cnn(-c2ncccn2)c1C(F)(F)F [Cpd 10, N-(5-Chloro-6-(2H-1,2,3-triazol-2-yl)pyridin-3-yl)-1-(pyrimidin-2-yl)-5-(trifluoromethyl)-1H-pyrazole-4-carboxamide]
10 | 257 | Cc1c(-n2ncc(C(=O)Nc3cnc(-n4nccn4)c(Cl)c3)c2C(F)(F)F)ccnc1Cl [Cpd 155, 1-(2-chloro-3-methylpyridin-4-yl)-N-(5-chloro-6-(2H-1,2,3-triazol-2-yl)pyridin-3-yl)-5-(trifluoromethyl)-1H-pyrazole-4-carboxamide]
11 | 209 | N#Cc1cc(NC(=O)c2cnn(-c3cc(F)ccc3Cl)c2C(F)(F)F)cnc1-n1nccn1 [Cpd 80, 1-(2-chloro-5-fluorophenyl)-N-(5-cyano-6-(2H-1,2,3-triazol-2-yl)pyridin-3-yl)-5-(trifluoromethyl)-1H-pyrazole-4-carboxamide]
12 | 794 | Cc1ncccc1-n1ncc(C(=O)Nc2cnc(-n3nccn3)c(C#N)c2)c1C(F)(F)F [Cpd 88, N-(5-cyano-6-(2H-1,2,3-triazol-2-yl)pyridin-3-yl)-1-(2-methylpyridin-3-yl)-5-(trifluoromethyl)-1H-pyrazole-4-carboxamide]
13 | 513 | Cc1nccc(-n2ncc(C(=O)Nc3cnc(-n4nccn4)c(C#N)c3)c2C(F)(F)F)c1C#N [Cpd 33, 1-(3-Cyano-2-methylpyridin-4-yl)-N-(5-cyano-6-(2H-1,2,3-triazol-2-yl)pyridin-3-yl)-5-(trifluoromethyl)-1H-pyrazole-4-carboxamide]
14 | 380 | O=C(Nc1cnc(-n2nccn2)c(Cl)c1)c1cnn(-c2cc(F)ccc2Cl)c1C(F)(F)F [Cpd 79, 1-(2-chloro-5-fluorophenyl)-N-(5-chloro-6-(2H-1,2,3-triazol-2-yl)pyridin-3-yl)-5-(trifluoromethyl)-1H-pyrazole-4-carboxamide]
15 | 724 | Cc1cc(F)ncc1-n1ncc(C(=O)Nc2cnc(-n3nccn3)c(Cl)c2)c1C(F)(F)F [Cpd 87, N-(5-chloro-6-(2H-1,2,3-triazol-2-yl)pyridin-3-yl)-1-(6-fluoro-4-methylpyridin-3-yl)-5-(trifluoromethyl)-1H-pyrazole-4-carboxamide]
16 | 1910 | N#Cc1cc(-n2ncc(C(=O)Nc3cnc(-n4nccn4)c(C#N)c3)c2C(F)(F)F)ccn1 [Cpd 40, N-(5-cyano-6-(2H-1,2,3-triazol-2-yl)pyridin-3-yl)-1-(2-cyanopyridin-4-yl)-5-(trifluoromethyl)-1H-pyrazole-4-carboxamide]
17 | 794 | O=C(Nc1cnc(-n2nccn2)c(Cl)c1)c1cnn(-c2nc(Cl)ccc2Cl)c1C(F)(F)F [Cpd 163, N-(5-chloro-6-(2H-1,2,3-triazol-2-yl)pyridin-3-yl)-1-(3,6-dichloropyridin-2-yl)-5-(trifluoromethyl)-1H-pyrazole-4-carboxamide]
18 | 245 | N#Cc1cc(NC(=O)c2cnn(-c3ccc(F)c(F)c3)c2C(F)(F)F)cnc1-n1nccn1 [Cpd 104, N-(5-cyano-6-(2H-1,2,3-triazol-2-yl)pyridin-3-yl)-1-(3,4-difluorophenyl)-5-(trifluoromethyl)-1H-pyrazole-4-carboxamide]
19 | 331 | Cc1ccc(-n2ncc(C(=O)Nc3cnc(-n4nccn4)c(Cl)c3)c2C(F)(F)F)nc1N [Cpd 184, 1-(6-amino-5-methylpyridin-2-yl)-N-(5-chloro-6-(2H-1,2,3-triazol-2-yl)pyridin-3-yl)-5-(trifluoromethyl)-1H-pyrazole-4-carboxamide]
20 | 1120 | Nc1ccc(C(F)(F)F)c(-n2ncc(C(=O)Nc3cnc(-n4nccn4)c(Cl)c3)c2C(F)(F)F)n1 [Cpd 192, 1-(6-amino-3-(trifluoromethyl)pyridin-2-yl)-N-(5-chloro-6-(2H-1,2,3-triazol-2-yl)pyridin-3-yl)-5-(trifluoromethyl)-1H-pyrazole-4-carboxamide]
21 | 324 | COc1nccc(-n2ncc(C(=O)Nc3cnc(-n4nccn4)c(C#N)c3)c2C(F)(F)F)c1C [Cpd 38, N-(5-cyano-6-(2H-1,2,3-triazol-2-yl)pyridin-3-yl)-1-(2-methoxy-3-methylpyridin-4-yl)-5-(trifluoromethyl)-1H-pyrazole-4-carboxamide]
22 | 339 | Cc1cc(F)c(N)nc1-n1ncc(C(=O)Nc2cc(C#N)c(-n3nccn3)nc2C)c1C(F)(F)F [Cpd 186, 1-(6-amino-5-fluoro-3-methylpyridin-2-yl)-N-(5-cyano-2-methyl-6-(2H-1,2,3-triazol-2-yl)pyridin-3-yl)-5-(trifluoromethyl)-1H-pyrazole-4-carboxamide]
